Assay results published in BindingDB's records for doi:10.1111/j.1471-4159.1985.tb08803.x (Lundbeck Ais, 1985).
Where a name gives a salt, the structure may show the parent alone.

Tests used:
[1] = molecular target: T1, Muscarinic acetylcholine receptor M2 (Rattus norvegicus, UniProt P10980)
T1 sequence (P10980 whole entry): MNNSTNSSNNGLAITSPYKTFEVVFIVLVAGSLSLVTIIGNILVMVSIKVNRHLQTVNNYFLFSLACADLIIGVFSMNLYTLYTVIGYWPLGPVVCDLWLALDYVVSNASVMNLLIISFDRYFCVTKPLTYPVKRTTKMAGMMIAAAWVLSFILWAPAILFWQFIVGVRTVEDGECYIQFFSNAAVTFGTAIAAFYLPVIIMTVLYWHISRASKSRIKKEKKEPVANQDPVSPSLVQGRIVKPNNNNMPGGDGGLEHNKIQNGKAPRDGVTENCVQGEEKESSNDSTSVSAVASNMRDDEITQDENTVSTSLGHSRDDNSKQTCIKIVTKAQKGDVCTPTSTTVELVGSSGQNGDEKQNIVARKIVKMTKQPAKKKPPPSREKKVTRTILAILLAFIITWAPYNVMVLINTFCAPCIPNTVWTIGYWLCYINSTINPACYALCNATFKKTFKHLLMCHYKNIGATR

[2] = molecular target: Norepinephrine transporter (Rattus norvegicus, UniProt Q9JIA2)
[3] = molecular target: 5-hydroxytryptamine receptor 2A (Rattus norvegicus, UniProt P14842)
Chain of 5-hydroxytryptamine receptor 2A (P14842 whole entry): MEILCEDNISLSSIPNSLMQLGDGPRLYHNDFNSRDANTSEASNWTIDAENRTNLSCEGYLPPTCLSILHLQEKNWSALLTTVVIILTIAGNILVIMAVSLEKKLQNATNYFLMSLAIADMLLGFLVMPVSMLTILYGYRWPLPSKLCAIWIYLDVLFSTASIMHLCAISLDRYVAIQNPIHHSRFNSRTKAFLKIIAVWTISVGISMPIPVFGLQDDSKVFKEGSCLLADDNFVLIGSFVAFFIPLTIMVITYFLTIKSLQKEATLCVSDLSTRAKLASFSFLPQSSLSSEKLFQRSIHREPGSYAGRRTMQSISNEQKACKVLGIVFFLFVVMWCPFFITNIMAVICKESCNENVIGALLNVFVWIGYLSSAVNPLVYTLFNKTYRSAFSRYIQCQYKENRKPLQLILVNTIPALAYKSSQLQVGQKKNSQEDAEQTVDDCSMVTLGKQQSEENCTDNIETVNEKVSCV

[4] = molecular target: D(2) dopamine receptor (Rattus norvegicus, UniProt P61169)
Chain of D(2) dopamine receptor (P61169 whole entry): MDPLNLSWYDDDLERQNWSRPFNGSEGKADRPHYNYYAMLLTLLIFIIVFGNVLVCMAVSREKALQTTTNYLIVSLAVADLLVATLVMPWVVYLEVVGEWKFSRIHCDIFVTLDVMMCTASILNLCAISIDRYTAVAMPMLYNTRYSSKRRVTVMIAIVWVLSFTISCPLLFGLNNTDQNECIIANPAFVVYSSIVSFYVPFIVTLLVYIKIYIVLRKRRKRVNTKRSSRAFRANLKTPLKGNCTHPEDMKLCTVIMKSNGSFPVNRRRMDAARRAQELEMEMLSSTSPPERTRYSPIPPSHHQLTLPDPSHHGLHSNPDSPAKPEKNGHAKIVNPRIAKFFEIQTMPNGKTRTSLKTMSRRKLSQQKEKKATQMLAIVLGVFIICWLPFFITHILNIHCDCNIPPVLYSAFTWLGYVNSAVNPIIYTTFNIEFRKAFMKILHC

[5] = molecular target: T2, Alpha-1A adrenergic receptor (Rattus norvegicus, UniProt P43140)
T2 sequence (P43140 whole entry): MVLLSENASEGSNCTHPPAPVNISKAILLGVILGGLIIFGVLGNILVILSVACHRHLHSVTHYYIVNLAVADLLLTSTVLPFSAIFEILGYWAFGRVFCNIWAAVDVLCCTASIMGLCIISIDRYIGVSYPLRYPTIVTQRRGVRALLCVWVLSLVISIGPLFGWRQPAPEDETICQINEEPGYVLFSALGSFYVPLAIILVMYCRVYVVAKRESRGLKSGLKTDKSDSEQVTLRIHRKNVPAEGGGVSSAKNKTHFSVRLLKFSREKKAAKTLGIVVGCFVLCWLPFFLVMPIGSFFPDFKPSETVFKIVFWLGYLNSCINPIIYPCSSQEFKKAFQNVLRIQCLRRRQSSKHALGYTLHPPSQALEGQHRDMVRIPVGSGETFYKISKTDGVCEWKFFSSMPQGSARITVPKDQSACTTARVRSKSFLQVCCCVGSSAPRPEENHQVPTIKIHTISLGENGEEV

[6] = molecular target: Sodium-dependent serotonin transporter (Rattus norvegicus, UniProt P31652)
Chain of Sodium-dependent serotonin transporter (P31652 whole entry): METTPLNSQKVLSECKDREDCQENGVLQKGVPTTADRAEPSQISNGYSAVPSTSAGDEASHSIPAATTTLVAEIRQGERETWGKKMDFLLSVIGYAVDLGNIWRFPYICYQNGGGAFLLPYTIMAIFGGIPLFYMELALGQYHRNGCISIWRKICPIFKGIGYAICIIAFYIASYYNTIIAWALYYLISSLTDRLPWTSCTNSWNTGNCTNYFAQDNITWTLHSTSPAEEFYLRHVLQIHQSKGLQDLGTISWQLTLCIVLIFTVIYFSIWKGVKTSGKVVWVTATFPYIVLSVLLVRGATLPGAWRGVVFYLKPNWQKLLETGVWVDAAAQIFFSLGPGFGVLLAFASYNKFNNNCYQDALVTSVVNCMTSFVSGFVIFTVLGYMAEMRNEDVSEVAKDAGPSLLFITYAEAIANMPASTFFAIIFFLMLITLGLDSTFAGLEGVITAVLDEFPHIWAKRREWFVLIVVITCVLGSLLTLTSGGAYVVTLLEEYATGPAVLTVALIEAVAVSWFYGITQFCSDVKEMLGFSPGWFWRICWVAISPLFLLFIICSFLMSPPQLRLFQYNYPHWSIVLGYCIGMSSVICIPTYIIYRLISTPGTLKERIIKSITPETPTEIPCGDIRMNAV

| Structure (SMILES) | Ki [1] [nM] | Ki [2] [nM] | Ki [3] [nM] | Ki [4] [nM] | Ki [5] [nM] | Ki [6] [nM] |
| --- | --- | --- | --- | --- | --- | --- |
| Fc1ccc(C(OCCN2CCN(C/C=C/c3ccccc3)CC2)c2ccc(F)cc2)cc1 | 2200 | 13 | 3400 | 810 | 2200 | – |
| COc1ccc2c(c1)CN(C)CC2c1ccc(Cl)c(Cl)c1 (stereo unspecified) | 3700 | 2.3 | 550 | > 10000 | 480 | – |
| CN(C)C[C@@H]1C2CCC(CC2)[C@@H]1c1ccc(Cl)c(Cl)c1 | > 10000 | 5.4 | > 10000 | 570 | > 10000 | 51 |
| CNCCC(Oc1ccccc1OC)c1ccccc1 (stereo unspecified) [3-(2-methoxyphenoxy)-N-methyl-3-phenylpropan-1-amine] | 5000 | – | 620 | > 10000 | 4300 | – |
| CN1Cc2c(N)cccc2[C@H](c2ccccc2)C1 [(+/-)-2-Methyl-4-phenyl-1,2,3,4-tetrahydro-isoquinolin-8-ylamine] | > 10000 | 6.6 | – | > 10000 | 1200 | – |
| CC(NC(C)(C)C)C(=O)c1cccc(Cl)c1 (stereo unspecified) [BUPROPION HYDROCHLORIDE] | > 10000 | 1500 | – | > 10000 | > 10000 | – |
| C(=C\c1ccccc1)/CN1CCN(CCOC(c2ccccc2)c2ccccc2)CC1 [CAS_67469-75-4] | 900 | 29 | 1000 | 2500 | 270 | 1900 |
| CN[C@H]1C[C@H](c2ccc(Cl)c(Cl)c2)c2ccccc21 [CAS_96850-13-4] | > 10000 | – | – | > 10000 | 740 | – |
| CN(C)CCCC1(c2ccc(F)cc2)OCc2cc(C#N)ccc21 (stereo unspecified) [CITALOPRAM HYDROBROMIDE] | 4800 | – | – | > 10000 | 1600 | – |
| CNCCCC1(c2ccccc2)SC(C)(C)c2ccccc21 (stereo unspecified) [Talsupram] | 1300 | 0.79 | 1600 | > 10000 | > 10000 | 850 |
